How the values were obtained:
NCI-H460 = assay: Cytotoxicity against human NCI-H460 cells after 24 hrs by MTT assay; assay type: functional, cell-based; settings: NCI-H460, 24 h
MCF7 = assay: Cytotoxicity against human MCF7 cells after 24 hrs by MTT assay; assay type: functional, cell-based; settings: MCF7, 24 h
SF-268 = assay: Cytotoxicity against human SF-268 cells after 24 hrs by MTT assay; assay type: functional, cell-based; settings: SF-268, 24 h
MIA PaCa-2 = assay: Cytotoxicity against human MIA PaCa2 cells after 24 hrs by MTT assay; assay type: functional, cell-based; settings: MIA PaCa-2, 24 h
[1] = Cytotoxicity against human WI38 cells after 24 hrs by MTT assay; assay type: cell-based; settings: WI-38, 24 h

C=C1C(=O)O[C@H]2[C@@H](OC(C)=O)[C@@H]1[C@H](OC(=O)C(C)(C)O)[C@H](C(=C)C=O)[C@@]2(C)[C@@H]1CO1 (relative stereo) gave an IC50 (NCI-H460) of 970 nM, an IC50 (MCF7) of 520 nM and an IC50 (SF-268) of 640 nM. It also gave an IC50 (MIA PaCa-2) of 440 nM and an IC50 [1] of 760 nM.
C=C1C(=O)O[C@H]2[C@@H](OC(C)=O)[C@@H]1[C@H](OC(=O)C(C)(O)CC)[C@H](C(=C)C=O)[C@@]2(C)[C@@H]1CO1 (relative stereo) [ZINAGRANDINOLIDE A] gave an IC50 (NCI-H460) of 450 nM, an IC50 (MCF7) of 510 nM and an IC50 (SF-268) of 290 nM. It also gave an IC50 (MIA PaCa-2) of 220 nM and an IC50 [1] of 690 nM.
Compound C=C[C@@]1(C)[C@H]2OC(=O)C(=C)[C@H]([C@@H]2OC(C)=O)[C@H](OC(=O)C(C)(O)CC)[C@@H]1C(=C)C=O (relative stereo) [ZINAGRANDINOLIDE B] has an IC50 (NCI-H460) of 250 nM, an IC50 (MCF7) of 380 nM and an IC50 (SF-268) of 300 nM. The IC50 (MIA PaCa-2) was 210 nM and the IC50 [1] was 430 nM.
Compound C=C[C@@]1(C)[C@H]2OC(=O)C(=C)[C@H]([C@@H]2OC(C)=O)[C@H](OC(=O)C(C)(C)O)[C@@H]1C(=C)C=O (relative stereo) [ZINAGRANDINOLIDE C] has an IC50 (NCI-H460) of 270 nM, an IC50 (MCF7) of 550 nM and an IC50 (SF-268) of 440 nM. The IC50 (MIA PaCa-2) was 320 nM and the IC50 [1] was 640 nM.
COc1cccc2c1C(=O)c1c(O)c3c(c(O)c1C2=O)C[C@@](O)(C(=O)CO)C[C@@H]3O[C@H]1C[C@H](N)[C@H](O)[C@H](C)O1 [DOXORUBICIN] gave an IC50 (NCI-H460) of 10 nM and an IC50 [1] of 300 nM.

Source: ChEMBL document CHEMBL1158143, “Zinagrandinolides A-C, cytotoxic delta-elemanolide-type sesquiterpene lactones from Zinnia grandiflora” (J Nat Prod, 2006)
